From US20240239854A1, “ANTIMICROBIAL PEPTIDES AND MODIFICATIONS THEREOF” (Donald Danforth Plant Science Center, priority 2022, published 2024)
In brackets after ≈: the same amount, converted by molar mass. Like-named read-outs stand apart in the source and are kept apart here. Positions of bridges follow the written chain, without caps; N, C: chain ends. Non-standard residues stand in square brackets, D forms with d. Residues, ends and D or L forms follow the SMILES beside them. Dab = NCC[C@H](N)C(=O)O

B1: PD91.1.1: Setaria viridis wild-type defensin SEQ ID NO: 578 with N-terminal alanine, expressed in Pichia pastoris (protein, listed as Setaria viridis)
chain: AYMCTTQNRFFHGRCVNNLNCASSCVHGRLGTGGHCATRKRSAADPGVDIDWVWNRRICVCVFQC
modifications: N-terminal alanine
B2: PD127.1.1: wild-type defensin-like protein SEQ ID NO: 732 with N-terminal alanine, expressed in Pichia pastoris (protein, listed as Potentilla micrantha)
chain: GACPLVQKRSKTWSGFCGSSNNCDKQCRTWEKAKHGACHATGDLKGTPRLKLRSCHARRSKDH
modifications: N-terminal alanine added
B3: PD97.1.1: Rubus chingii wild-type defensin SEQ ID NO: 608 with N-terminal alanine, expressed in Pichia pastoris (protein, listed as Rubus chingii)
chain: GACPLVSKRSKTWSGFCGSSNNCNKQCRSWESAQHGACHNTYKTVLGVKVISGRACFCYFCKKHT
modifications: N-terminal alanine

Tests used:
[1] = test system: Botrytis cinerea T-4; conditions: for MIC (μM) SFM: Table 18, SFM; for MIC (μM) (SFM + 2 mM CaCl2): Table 18, SFM + 2 mM CaCl2; for MIC (μM) (SFM + 100 mM KCl): Table 18, SFM + 100 mM KCl; for MIC (μM) (SFM + 100 mM NaCl): Table 18, SFM + 100 mM NaCl
[2] = test system: B. cinerea; conditions: SFM + 2 mM CaCl2
[3] = test system: Botrytis cinerea T4; assay type: cell-based
[4] = test system: Fusarium graminearum PH-1; assay type: cell-based; conditions: MIC Day 1; 96-well plate, resazurin cell viability
[5] = test system: Zymoseptoria tritici IPO323; assay type: cell-based

Molecule | B. cinerea T4 MIC Day1 [3] | F. graminearum PH-1 MIC Day1 [4] | Z. tritici IPO323 MIC Day 1 [5] | Z. tritici IPO323 MIC Day 7 [5] | Z. tritici IPO323 MIC Day 14 [5] | further results
CC[C@H](C)[C@@H]1NC(=O)[C@H](CCCNC(=N)N)NC(=O)[C@@H](NC(=O)[C@H](CCCNC(=N)N)NC(=O)CNC(=O)[C@@H](N)CO)CSSC[C@@H](C(N)=O)NC(=O)[C@H](CC(N)=O)NC(=O)[C@H](CCCCN)NC(=O)[C@H]([C@@H](C)O)NC(=O)[C@H](Cc2ccccc2)NC(=O)[C@H](Cc2ccc(O)cc2)NC(=O)[C@H](Cc2c[nH]c3ccccc23)NC(=O)[C@H](CCCNC(=N)N)NC(=O)[C@H](Cc2ccccc2)NC(=O)[C@H](CC(C)C)NC1=O [GMA1C_V3] (H-SGRCRILFRWYFTKNC-NH2; disulfide 4-16; N-terminus assumed) | – | – | – | – | – | MIC (μM) SFM [1]: 1.5 µM (≈ 3.07 µg/mL); MIC (μM) (SFM + 2 mM CaCl2) [1]: 6 µM; MIC (μM) (SFM + 100 mM KCl) [1]: >12 µM; MIC (μM) (SFM + 100 mM NaCl) [1]: 3 µM
NCC[C@H](NC(=O)CNC(=O)[C@@H](N)Cc1ccccc1)C(=O)N[C@@H](CS)C(=O)N[C@@H](CCN)C(=O)NCC(=O)N[C@@H](Cc1ccccc1)C(=O)N[C@@H](CCN)C(=O)N[C@@H](CCN)C(=O)N[C@@H](CCN)C(=O)N[C@@H](CS)C(=O)N[C@@H](Cc1ccccc1)C(=O)N[C@@H](CS)C(=O)N[C@@H](Cc1c[nH]c2ccccc12)C(=O)N[C@@H](CCN)C(=O)N[C@@H](Cc1c[nH]c2ccccc12)C(=O)N[C@@H](CS)C(=O)O [GMA4C_V5, FG(Dab)C(Dab)GF(Dab)(Dab)(Dab)CFCW(Dab)WC] (H-FG[Dab]C[Dab]GF[Dab][Dab][Dab]CFCW[Dab]WC-OH; N-terminus assumed) | – | – | – | – | – | SFM + 2 mM CaCl2 MIC ([2]; Table 4, B. cinerea): >6 (very μM; SFM + 2 mM CaCl2 MIC ([2]; Table 10, values repeat Table 4 (B. cinerea)): >6 (very μM
CC(C)C[C@@H]1NC(=O)[C@@H](NC(=O)[C@H](C)NC(=O)CN)CSSC[C@@H](C(=O)N[C@@H](Cc2ccc(O)cc2)C(N)=O)NC(=O)[C@H](Cc2c[nH]cn2)NC(=O)[C@H](CCCNC(=N)N)NC(=O)[C@H](Cc2ccc(O)cc2)NC(=O)[C@H](Cc2ccc(O)cc2)NC(=O)[C@H](Cc2c[nH]c3ccccc23)NC(=O)[C@H](Cc2ccccc2)NC(=O)[C@H](Cc2ccccc2)NC(=O)CNC(=O)[C@H](Cc2ccc(O)cc2)NC(=O)[C@H](Cc2c[nH]cn2)NC(=O)[C@H](CCCCN)NC(=O)[C@H](CO)NC(=O)[C@H](Cc2c[nH]cn2)NC(=O)[C@H](CCCNC(=N)N)NC(=O)[C@H](CC(N)=O)NC(=O)[C@H](CCCCN)NC1=O [GMAOe1C_V4] (H-GACLKNRHSKHYGFFWYYRHCY-NH2; disulfide 3-21; N-terminus assumed) | – | – | – | – | – | MIC (μM) SFM [1]: 1.5 µM (≈ 4.25 µg/mL); MIC (μM) (SFM + 2 mM CaCl2) [1]: 6 to 12 µM; MIC (μM) (SFM + 100 mM KCl) [1]: 6 to 12 µM; MIC (μM) (SFM + 100 mM NaCl) [1]: 6 µM
PD115.1.1: Lupinus albus wild-type defensin SEQ ID NO: 683 with N-terminal alanine, expressed in Pichia pastoris (NNCKYESNKFHGVCLSDTNCESVCQTEGFPFGKCDGVLPRTCVCKKPC; N-terminal alanine added; listed as Lupinus albus) | >12 µM | >12 µM | >12 µM | >12 µM | >12 µM | –
PD117.1.1: Manihot esculenta wild-type defensin SEQ ID NO: 692 with N-terminal alanine, expressed in Pichia pastoris (RICVKPEPLAHCTETICTQFCIRKYGPPPGTVGKCNLPPGFCTCYHNC; N-terminal alanine added; listed as Manihot esculenta) | >12 µM | >12 µM | >12 µM | >12 µM | >12 µM | –
PD118.1.1: Malus domestica wild-type defensin SEQ ID NO: 697 with N-terminal alanine, expressed in Pichia pastoris (KICEFPSTLFKGLCFSSNNCKHTCRKEQFTRGKCSLLTRTCMCTKKC; N-terminal alanine added; listed as Malus domestica) | 1.5 µM | 1.5 µM | 1.5 µM | 2 µM | 3 µM | –
PD119.1.1: Setaria italica wild-type defensin SEQ ID NO: 702 with N-terminal alanine, expressed in Pichia pastoris (RHCLSQSHTFKGLCFSSENCASVCKSEKFPGGQCQMHGASRKCFCKVVC; N-terminal alanine added; listed as Setaria italica) | 4.5 µM | 1.5 µM | 2.5 µM | 6 µM | 12 µM | –
PD121.1.1: Setaria italica wild-type defensin SEQ ID NO: 711 with N-terminal alanine, expressed in Pichia pastoris (RHCLSQSHHFKGLCLSSSNCANVCRVERFPDGECQTTAGTRKCFCKRIC; N-terminal alanine added; listed as Setaria italica) | 2 µM | 1.5 µM | 1 µM | 4 µM | 5 µM | –
PD123.1.1: Striga asiatica wild-type defensin SEQ ID NO: 719 with N-terminal alanine, expressed in Pichia pastoris (RKCESKSQQFKGLCFIKANCAAVCRTEGFHSGHCRGFRRRCYCTKHC; N-terminal alanine added; listed as Striga asiatica) | 6 µM | 6 µM | 3 µM | 5 µM | 10 µM | –
PD124.1.1: Rubus argutus wild-type defensin SEQ ID NO: 723 with N-terminal alanine, expressed in Pichia pastoris (RICEVPSKTFIGLCFKDTNCIVRCRSEGYGYGKCSHFRRRCRCFKPCP; N-terminal alanine added; listed as Rubus argutus) | 0.75 µM | 2 µM | 0.75 µM | 3.25 µM | 4 µM | –
PD125.1.1: wild-type defensin-like protein SEQ ID NO: 728 with N-terminal alanine, expressed in Pichia pastoris (VICPLESKRSKTWSGVCAQSKNCDKQCKTWERAKHGACHATYGKVLGVKACMHAGNK; N-terminal alanine added; listed as Prunus armeniaca) | 10 µM | 8 µM | 3 µM | 7 µM | 9 µM | –
PD126.1.1: wild-type defensin-like protein SEQ ID NO: 730 with N-terminal alanine, expressed in Pichia pastoris (KLCERRSKTWTGWCAKTSHCNKQCKDWERVEHGACHGEFLEKPVSAISNAHCKISF; N-terminal alanine added; listed as Prunus armeniaca) | >12 µM | >12 µM | >12 µM | >12 µM | >12 µM | –
PD128.1.1: wild-type defensin-like protein SEQ ID NO: 734 with N-terminal alanine, expressed in Pichia pastoris (RVCLRRSKTWTGFCGNTRGFDSQCKRWECALHGACHC; N-terminal alanine added; listed as Lepidium sativum) | 3 µM | >12 µM | 3 µM | 7 µM | 8 µM | –
B1 | >12 µM | >12 µM | 6 µM | >6 µM | >6 µM | –
B2 | >12 µM | >12 µM | >12 µM | >12 µM | >12 µM | –
B3 | 1.25 µM | 1.5 µM | 0.75 µM | 1.5 µM | 1.5 µM | MIC against Z. tritici on day 1 [5]: 0.75 µM; MIC against Z. tritici on day 7 [5]: 1.5 µM; MIC against Z. tritici on day 14 [5]: 1.5 µM
